From US20240174618A1, “SUBSTITUTED (2-HETEROARYLOXYPHENYL)SULFONATES, SALTS THEREOF AND THEIR USE AS HERBICIDAL AGENTS” (Bayer Aktiengesellschaft, priority 2021, published 2024)

Legend:
Format in all cases: in vivo
[1] = system: Echinochloa crus-galli (ECHCG); assay: A. Herbicidal pre-emergence efficacy, ECHCG; conditions: scored visually after about 3 weeks vs untreated controls
Source text: (§1) Seeds of mono- and dicotyledonous weed plants were placed in plastic pots in sandy loam soil (doubly sown with one species each of mono- or dicotyledonous weed plants per pot) and covered with soil. The compounds of the invention, formulated in the form of wettable powders (WP) or as emulsion concentrates (EC), were then applied onto the surface of the covering soil as aqueous suspension or emulsion with addition of 0.5% additive at a water application rate of 600 liters per hectare (converted). After the treatment, the pots were placed in a greenhouse and kept under good growth conditions for the test plants. After about 3 weeks, the efficacy of the preparations was scored visually in comparison with untreated controls as percentages.
(§2) For example, • 100% efficacy=plants have died, • 0% efficacy=like untreated control plants.
(§3) Tables A1a to A12c below show the effects of selected compounds of the general formula (I) according to table 1 on various harmful plants at an application rate corresponding to 1280 g/ha or less, which were obtained by the experimental procedure mentioned above.

Poa annua (POAAN) [2] = assay: A. Herbicidal pre-emergence efficacy, POAAN; conditions: dosage 1280 g/ha
Source text: as §1, §2, §3

Kochia scoparia (KCHSC) [3] = assay: A. Herbicidal pre-emergence efficacy, KCHSC; conditions: pre-emergence
Source text: as §1, §2, §3

Stellaria media (STEME) [4] = assay: B. Herbicidal post-emergence efficacy, STEME
Method: (§4) Seeds of mono- and dicotyledonous weed plants were placed in plastic pots in sandy loam soil (doubly sown with in each case one species of mono- or dicotyledonous weed plants per pot), covered with soil and cultivated in a greenhouse under controlled growth conditions. 2 to 3 weeks after sowing, the test plants were treated at the one-leaf stage. The compounds of the invention, formulated in the form of wettable powders (WP) or as emulsion concentrates (EC), were applied onto the green parts of the plants as aqueous suspension or emulsion with addition of 0.5% additive at a water application rate of 600 liters per hectare (converted). After the test plants had been kept in the greenhouse under optimum growth conditions for about 3 weeks, the activity of the preparations was rated visually in comparison to untreated controls.
(§5) For example, • 100% efficacy=plants have died, • 0% efficacy=like untreated control plants
(§6) Tables B1a to B12c below show the effects of selected inventive compounds of the general formula (I) according to table 1 on various harmful plants at an application rate corresponding to 1280 g/ha or less, which were obtained by the experimental procedure mentioned above.

[5] = system: Abutilon theophrasti (ABUTH); assay: A. Herbicidal pre-emergence efficacy, ABUTH; conditions: scored visually after about 3 weeks vs untreated controls
Source text: as §1, §2, §3

Kochia scoparia (KCHSC) [6] = assay: B. Herbicidal post-emergence efficacy, KCHSC; conditions: for Post-emergence efficacy against KCHSC in %: rated visually after about 3 weeks; for Post-emergence efficacy against KCHSC: 1280 g/ha
Method: as §4, §5, §6

[7] = system: Digitaria sanguinalis (DIGSA); assay: A. Herbicidal pre-emergence efficacy, DIGSA; conditions: scored visually after about 3 weeks vs untreated controls
Source text: as §1, §2, §3

[8] = system: Echinochloa crus-galli (ECHCG); assay: B. Herbicidal post-emergence efficacy, ECHCG; conditions: 1280 g/ha, rated visually after about 3 weeks
Method: as §4, §5, §6

[9] = system: Amaranthus retroflexus (AMARE); assay: A. Herbicidal pre-emergence efficacy, AMARE
Source text: as §1, §2, §3

[10] = system: Amaranthus retroflexus (AMARE); assay: B. Herbicidal post-emergence efficacy, AMARE
Method: as §4, §5, §6

[11] = system: Abutilon theophrasti (ABUTH); assay: B. Herbicidal post-emergence efficacy, ABUTH; conditions: rated visually after about 3 weeks
Method: as §4, §5, §6

Veronica persica (VERPE) [12] = assay: B. Herbicidal post-emergence efficacy, VERPE
Method: as §4, §5, §6

Poa annua (POAAN) [13] = assay: B. Herbicidal post-emergence efficacy, POAAN; conditions: 1280 g/ha
Method: as §4, §5, §6

Stellaria media (STEME) [14] = assay: A. Herbicidal pre-emergence efficacy, STEME
Source text: as §1, §2, §3

Setaria viridis (SETVI) = assay: A. Herbicidal pre-emergence efficacy, SETVI
Source text: as §1, §2, §3

Veronica persica (VERPE) [15] = assay: A. Herbicidal pre-emergence efficacy, VERPE
Source text: as §1, §2, §3

Lolium rigidum (LOLRI) = assay: A. Herbicidal pre-emergence efficacy, LOLRI; conditions: dosage 1280 g/ha
Source text: as §1, §2, §3

[16] = system: Matricaria inodora (MATIN); assay: A. Herbicidal pre-emergence efficacy, MATIN; conditions: pre-emergence, dosage 1280 g/ha
Source text: as §1, §2, §3

Row | Structure (SMILES) | Pre-emergence efficacy against ECHCG ([1]; 1280 g/ha) | Pre-emergence efficacy against POAAN (Poa annua (POAAN) [2]) | Pre-emergence efficacy against KCHSC (Kochia scoparia (KCHSC) [3]; dosage 320 g/ha) | Pre-emergence efficacy against KCHSC (Kochia scoparia (KCHSC) [3]; dosage 1280 g/ha) | Post-emergence efficacy against STEME (Stellaria media (STEME) [4]; 80 g/ha) | Post-emergence efficacy against STEME (Stellaria media (STEME) [4]; 1280 g/ha) | Pre-emergence efficacy against ABUTH ([5]; 320 g/ha) | Pre-emergence efficacy against ABUTH ([5]; 1280 g/ha) | Post-emergence efficacy against KCHSC in % (Kochia scoparia (KCHSC) [6]; 320 g/ha) | Post-emergence efficacy against KCHSC (Kochia scoparia (KCHSC) [6]) | Pre-emergence efficacy against AMARE in % ([9]; 320 g/ha) | Pre-emergence efficacy against AMARE in % ([9]; 1280 g/ha) | Post-emergence efficacy against AMARE ([10]; 320 g/ha) | Post-emergence efficacy against AMARE ([10]; 1280 g/ha) | Post-emergence efficacy against ABUTH in % ([11]; 1280 g/ha) | Post-emergence efficacy against VERPE (Veronica persica (VERPE) [12]; 320 g/ha) | Post-emergence efficacy against VERPE (Veronica persica (VERPE) [12]; 1280 g/ha) | Post-emergence efficacy against POAAN (Poa annua (POAAN) [13]) | Pre-emergence efficacy against STEME (Stellaria media (STEME) [14]; dosage 1280 g/ha) | Pre-emergence efficacy against SETVI (Setaria viridis (SETVI); dosage 1280 g/ha) | other results
1 | O=S(=O)(Oc1ccccc1Oc1ncc(Cl)cn1)C1CCCC1 [Example I-19] | 90% | 90% | 90% | 90% | 90% | 100% | 90% | 100% | 90% | 100% | 100% | 100% | 90% | 100% | 90% | 90% | 100% | 90% | 100% | 100% | Post-emergence efficacy against STEME (Stellaria media (STEME) [4]; 320 g/ha): 100%; Pre-emergence efficacy against DIGSA ([7]; 80 g/ha): 100%; Pre-emergence efficacy against DIGSA ([7]; 320 g/ha): 100%; Pre-emergence efficacy against DIGSA ([7]; 1280 g/ha): 100%; Post-emergence efficacy against ECHCG in % [8]: 90%; Pre-emergence efficacy against AMARE in % ([9]; 80 g/ha): 90%; Post-emergence efficacy against ABUTH in % ([11]; 320 g/ha): 90%; Post-emergence efficacy against VERPE (Veronica persica (VERPE) [12]; 80 g/ha): 90%; Pre-emergence efficacy against STEME (Stellaria media (STEME) [14]; dosage 320 g/ha): 100%; Pre-emergence efficacy against SETVI (Setaria viridis (SETVI); dosage 320 g/ha): 90%
2 | CCC(C)S(=O)(=O)Oc1ccccc1Oc1ncc(Cl)cn1 (centres unmarked) [Example I-22] | 90% | 90% | 90% | 100% | 90% | 90% | 100% | 100% | 90% | 100% | 90% | 100% | 90% | 100% | 100% | 100% | 100% | 90% | 100% | 100% | Pre-emergence efficacy against ECHCG ([1]; 320 g/ha): 90%; Pre-emergence efficacy against VERPE in % (Veronica persica (VERPE) [15]; 1280 g/ha): 90%; Pre-emergence efficacy against LOLRI (Lolium rigidum (LOLRI)): 90%; Post-emergence efficacy against STEME (Stellaria media (STEME) [4]; 320 g/ha): 90%; Post-emergence efficacy against KCHSC in % (Kochia scoparia (KCHSC) [6]; 80 g/ha): 90%; Pre-emergence efficacy against DIGSA ([7]; 320 g/ha): 100%; Pre-emergence efficacy against DIGSA ([7]; 1280 g/ha): 100%; Pre-emergence efficacy against AMARE in % ([9]; 80 g/ha): 90%; Post-emergence efficacy against ABUTH in % ([11]; 320 g/ha): 90%; Post-emergence efficacy against VERPE (Veronica persica (VERPE) [12]; 80 g/ha): 90%; Pre-emergence efficacy against STEME (Stellaria media (STEME) [14]; dosage 80 g/ha): 100%; Pre-emergence efficacy against STEME (Stellaria media (STEME) [14]; dosage 320 g/ha): 100%; Pre-emergence efficacy against SETVI (Setaria viridis (SETVI); dosage 320 g/ha): 90%
3 | CC(C)S(=O)(=O)Oc1ccccc1Oc1ncc(Cl)cn1 [Example I-18] | 100% | 90% |  |  |  | 90% | 90% | 100% | 100% | 100% | 100% | 100% | 100% | 100% | 90% | 90% | 90% | 90% | 90% | 90% | Pre-emergence efficacy against ECHCG ([1]; 320 g/ha): 90%; Pre-emergence efficacy against VERPE in % (Veronica persica (VERPE) [15]; 320 g/ha): 90%; Pre-emergence efficacy against VERPE in % (Veronica persica (VERPE) [15]; 1280 g/ha): 100%; Pre-emergence efficacy against LOLRI (Lolium rigidum (LOLRI)): 90%; Pre-emergence efficacy against MATIN [16]: 90%; Post-emergence efficacy against ECHCG in % [8]: 90%
